# Results from ChEMBL document CHEMBL3352708, “Discovery of oxazole and triazole derivatives as potent and selective S1P(1) agonists through pharmacophore-guided design” (Eur J Med Chem, 2014).
# Legend:
# [1] = in vivo; settings: Sprague-Dawley, rat, po, 3 mg/kg
# [2] = species on record: Rattus norvegicus; settings: in vivo, po, 3 mg/kg
# [3] = in vivo; settings: Sprague-Dawley, rat, po, 3 mg/kg; remark: listed apart in the source
# [4] = species on record: Rattus norvegicus; settings: in vivo, po, 3 mg/kg; remark: listed apart in the source
# [5] = species on record: Rattus norvegicus; settings: in vivo, po, 3 mg/kg; remark: listed apart in the source
# [6] = in vivo; settings: Sprague-Dawley, rat, po, 3 mg/kg; remark: listed apart in the source
# [7] = in vivo; settings: Sprague-Dawley, rat, po, 3 mg/kg; remark: listed apart in the source
# [8] = in vivo; settings: Sprague-Dawley, rat, plasma, po, 3 mg/kg
# [9] = in vivo; settings: Sprague-Dawley, rat, po, 3 mg/kg; remark: listed apart in the source
SMILES,Cmax [1] [ng/mL],Vss/F [2] [L/kg],Tmax [3] [h],AUCt [4] [ng·h/mL],t1/2 [5] [h],CL/F [6] [mL/min/kg],half-life [7] [min],AUC(0-t) [8] [ng·h/mL],Vd/F [9] [L/kg]
COc1ccc(-c2nc(-c3ccc(CCC(N)(CO)CO)cc3)co2)cc1.Cl,9.51,–,4.7,–,–,692,312,73.4,300
Cl.NC(CO)(CO)CCc1ccc(-c2coc(-c3ccc(Cl)cc3)n2)cc1,28.5,–,6.7,–,–,36.7,1130,900,60
Cl.NC(CO)(CO)CCc1ccc(-c2coc(Cc3ccc(Cl)cc3)n2)cc1,109,–,4,–,–,25,1270,1700,44.1

# The remaining lines, values ahead:
Cmax [1] [ng/mL],Vss/F [2] [L/kg],Tmax [3] [h],AUCt [4] [ng·h/mL],t1/2 [5] [h],CL/F [6] [mL/min/kg],half-life [7] [min],AUC(0-t) [8] [ng·h/mL],Vd/F [9] [L/kg],SMILES
385,17.2,6,4910,25.2,–,–,–,–,CCCCCCCCc1ccc(CCC(N)(CO)COP(=O)(O)O)cc1 (stereo not drawn)
13.2,208,8.4,319,18.9,–,–,–,–,CCCCCCCCc1ccc(CCC(N)(CO)CO)cc1 [FINGOLIMOD]
